Literature values in PubChem BioAssay AID1259409 (Chemical Carcinogenesis Research Information System (CCRIS), 2018).

Tested on: rodent chemically induced tumor inhibition, incidence and multiplicity
Assay: CCRIS tumor inhibitor studies
Settings: for tumour outcome (control, treated, inhibition, significance): Promoter: NONE USED; for outcome: Carcinogen: 1,2-Dimethylhydrazine dihydrochloride (306-37-6), Route [Inhibitor]: Oral, Species: Rat, Strain/Sex: Fischer 344/male, Target Tissue: Type of Lesion: Colon: tumors, Dose [Carcinogen]: 20 mg/kg once a wk for 4 wk, Promoter: None

## NCCCCN
Carcinogen: AZOXYMETHANE, 25843-45-2, Dose [Inhibitor]: 0, 300 UMOL/KG IN 0.9% SALINE 1/2 D FOR THE DURATION OF STUDY (STUDY DURATION: 40 WK), Route [Inhibitor]: INTRAPERITONEAL, Species: RAT, Strain/Sex: WISTAR/MALE, Target Tissue: Type of Lesion: COLON: TUMOR, Dose [Carcinogen]: 7.4 MG/KG IN 0.9% SALINE 1/WK FOR 10 WK
  tumour outcome (control, treated, inhibition, significance): 16/20 (80%), 6/18 (33%), 59%, p<0.01

## O=c1ccc2cc(O[C@@H]3O[C@H](CO)[C@@H](O)[C@H](O)[C@H]3O)c(O)cc2o1
Dose [Inhibitor]: 0.05% in tap water beginning 7 d before first carcinogen administration to end of last carcinogen administration, animal
  outcome: 5 (31%) vs 10 (62.5% in positive controls) (p <0.05)
Dose [Inhibitor]: 0.05% in tap water beginning after last carcinogen administration to end of 16 wk study
  outcome: 9 (56.3%) vs 10 (62.5%) in positive controls; ns
Carcinogen: BENZO[A]PYRENE, 50-32-8, Dose [Inhibitor]: 25 MG IN 0.1 ML DMSO 3/WK ADMINISTERED SIMULTANEOUSLY WITH CARCINOGEN FOR DURATION OF STUDY (STUDY DURATION: 368 D), Route [Inhibitor]: DERMAL, Species: MOUSE, Strain/Sex: ICR/FEMALE, Target Tissue: Type of Lesion: SKIN: PAPILLOMA, Dose [Carcinogen]: 5 UG IN 0.1 ML DMSO 3/WK FOR DURATION OF STUDY
  tumour outcome (control, treated, inhibition, significance): 13/50 (26%), 0/50 (0%), 100%, not calculated
Carcinogen: BENZO[A]PYRENE, 50-32-8, Dose [Inhibitor]: 25 MG IN 0.1 ML DMSO 3/WK ADMINISTERED SIMULTANEOUSLY WITH CARCINOGEN FOR DURATION OF STUDY (STUDY DURATION: 368 D), Route [Inhibitor]: DERMAL, Species: MOUSE, Strain/Sex: ICR/FEMALE, Target Tissue: Type of Lesion: SKIN: SQUAMOUS CARCINOMA, Dose [Carcinogen]: 5 UG IN 0.1 ML DMSO THAT ALSO CONTAINED AGENT, 3/WK, FOR DURATION OF STUDY
  tumour outcome (control, treated, inhibition, significance): 6/50 (12%), 0/50 (0%), 100%, not calculated
